# Values of other authors, collected in US20120065140A1, “Biomarkers for the Diagnosis of Autoimmune Disease” (priority 2010, published 2012).
compound,measurement,setting,value
"CN(Cc1cnc2nc(N)nc(N)c2n1)c1ccc(C(=O)N[C@@H](CCC(=O)O)C(=O)O)cc1 [MTX, Methotrexate]",onset of action,rheumatoid arthritis,4-6 weeks
same,patients having some response,rheumatoid arthritis patients,70%
